Experimental data from paper PMC5761851, “Application of a phenotypic drug discovery strategy to identify biological and chemical starting points for inhibition of TSLP production in lung epithelial cells” (PLoS ONE, 2018).

Columns and labels:
Experiment in all cases: kinase selectivity panel
Assay type in all cases: biochemical
CDK1/cyclinB = molecular target: T1, CDK1/cyclinB (Homo sapiens, UniProt P06493); details: read-out: percentage of control activity (POC), CDK1/cyclinB
T1 construct: purchased Eurofins Pharma Discovery Services (KinaseProfiler; Cerep BioPrint panel)
T1 sequence (P06493 whole entry): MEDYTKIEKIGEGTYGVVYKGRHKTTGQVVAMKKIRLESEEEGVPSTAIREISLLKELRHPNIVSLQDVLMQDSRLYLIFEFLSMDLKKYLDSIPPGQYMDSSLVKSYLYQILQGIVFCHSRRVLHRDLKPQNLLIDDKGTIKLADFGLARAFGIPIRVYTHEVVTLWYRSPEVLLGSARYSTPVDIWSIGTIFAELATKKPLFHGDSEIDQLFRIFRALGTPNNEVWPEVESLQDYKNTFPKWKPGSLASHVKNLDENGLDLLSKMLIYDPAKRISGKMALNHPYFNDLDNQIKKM
T1 sequence (P14635 whole entry partner): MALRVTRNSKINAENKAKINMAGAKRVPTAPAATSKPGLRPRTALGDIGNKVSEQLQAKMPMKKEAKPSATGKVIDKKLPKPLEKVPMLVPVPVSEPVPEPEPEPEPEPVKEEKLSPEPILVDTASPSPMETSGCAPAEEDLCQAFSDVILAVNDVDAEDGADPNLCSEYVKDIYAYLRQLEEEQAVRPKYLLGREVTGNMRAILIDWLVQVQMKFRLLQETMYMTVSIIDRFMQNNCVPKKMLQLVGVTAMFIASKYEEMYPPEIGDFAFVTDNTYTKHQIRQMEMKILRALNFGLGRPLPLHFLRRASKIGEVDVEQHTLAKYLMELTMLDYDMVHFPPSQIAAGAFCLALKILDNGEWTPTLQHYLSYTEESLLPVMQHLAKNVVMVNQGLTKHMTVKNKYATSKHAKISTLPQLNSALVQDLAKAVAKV
Method in brief: (§1)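 The compound is screened at 10 μM in duplicate against 125 representative kinases. Selected activities are followed up with a nine-concentration duplicate titration to give IC50.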

Rsk2 = molecular target: T2, Rsk2 (Homo sapiens, UniProt P51812); details: read-out: percentage of control activity (POC), Rsk2
T2 construct: purchased Eurofins Pharma Discovery Services (KinaseProfiler; Cerep BioPrint panel)
T2 sequence (P51812 whole entry): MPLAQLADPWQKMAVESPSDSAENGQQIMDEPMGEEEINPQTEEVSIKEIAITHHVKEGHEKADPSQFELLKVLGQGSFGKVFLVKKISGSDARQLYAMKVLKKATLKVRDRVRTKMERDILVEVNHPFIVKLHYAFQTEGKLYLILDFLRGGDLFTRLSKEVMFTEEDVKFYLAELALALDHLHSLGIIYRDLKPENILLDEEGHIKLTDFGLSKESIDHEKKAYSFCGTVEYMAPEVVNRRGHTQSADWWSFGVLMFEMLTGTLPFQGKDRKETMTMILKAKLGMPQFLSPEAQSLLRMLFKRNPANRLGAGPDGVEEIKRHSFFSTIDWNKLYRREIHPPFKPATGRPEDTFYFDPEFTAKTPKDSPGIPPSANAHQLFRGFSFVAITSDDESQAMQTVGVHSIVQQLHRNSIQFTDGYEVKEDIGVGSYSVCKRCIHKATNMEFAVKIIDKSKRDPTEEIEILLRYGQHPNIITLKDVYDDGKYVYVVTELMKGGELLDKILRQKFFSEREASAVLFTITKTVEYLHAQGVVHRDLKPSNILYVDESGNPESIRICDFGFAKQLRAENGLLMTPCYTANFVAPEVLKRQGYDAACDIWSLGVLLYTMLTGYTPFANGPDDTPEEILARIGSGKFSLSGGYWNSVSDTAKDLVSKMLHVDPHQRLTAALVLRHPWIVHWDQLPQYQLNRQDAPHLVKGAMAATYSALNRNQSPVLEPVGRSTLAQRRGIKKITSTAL
Method in brief: as §1

PTK5 = molecular target: T3, PTK5 (Homo sapiens, UniProt P42685); details: for remaining activity at 10 µM: read-out: percentage of control activity (POC), PTK5
T3 construct: purchased Eurofins Pharma Discovery Services (KinaseProfiler; Cerep BioPrint panel)
Method in brief: as §1

CDK9/cyclin T1 = molecular target: T4, CDK9/cyclin T1 (Homo sapiens, UniProt P50750); details: read-out: percentage of control activity (POC), CDK9/cyclin T1
T4 construct: purchased Eurofins Pharma Discovery Services (KinaseProfiler; Cerep BioPrint panel)
Method in brief: as §1

SAPK2a = molecular target: T5, SAPK2a (Homo sapiens, UniProt Q16539); details: for inhibition at 10 µM: read-out: inhibition of p38α(SAPK2α); for remaining activity at 10 µM: read-out: percentage of control activity (POC), SAPK2a
T5 construct: purchased Eurofins Pharma Discovery Services (KinaseProfiler; Cerep BioPrint panel)
T5 sequence (Q16539 whole entry): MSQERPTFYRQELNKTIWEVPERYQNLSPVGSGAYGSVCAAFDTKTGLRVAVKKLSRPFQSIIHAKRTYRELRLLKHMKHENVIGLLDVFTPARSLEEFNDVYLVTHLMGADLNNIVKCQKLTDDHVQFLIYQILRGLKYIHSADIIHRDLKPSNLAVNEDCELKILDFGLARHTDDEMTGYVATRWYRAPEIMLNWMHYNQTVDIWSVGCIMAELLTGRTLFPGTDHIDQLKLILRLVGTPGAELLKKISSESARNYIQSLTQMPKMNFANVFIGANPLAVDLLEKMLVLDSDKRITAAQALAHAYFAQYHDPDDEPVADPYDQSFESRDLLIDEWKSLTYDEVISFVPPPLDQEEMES
Method in brief: as §1

MSK2 = molecular target: T6, MSK2 (Homo sapiens, UniProt O75676); details: read-out: percentage of control activity (POC), MSK2
T6 construct: purchased Eurofins Pharma Discovery Services (KinaseProfiler; Cerep BioPrint panel)
T6 sequence (O75676 whole entry): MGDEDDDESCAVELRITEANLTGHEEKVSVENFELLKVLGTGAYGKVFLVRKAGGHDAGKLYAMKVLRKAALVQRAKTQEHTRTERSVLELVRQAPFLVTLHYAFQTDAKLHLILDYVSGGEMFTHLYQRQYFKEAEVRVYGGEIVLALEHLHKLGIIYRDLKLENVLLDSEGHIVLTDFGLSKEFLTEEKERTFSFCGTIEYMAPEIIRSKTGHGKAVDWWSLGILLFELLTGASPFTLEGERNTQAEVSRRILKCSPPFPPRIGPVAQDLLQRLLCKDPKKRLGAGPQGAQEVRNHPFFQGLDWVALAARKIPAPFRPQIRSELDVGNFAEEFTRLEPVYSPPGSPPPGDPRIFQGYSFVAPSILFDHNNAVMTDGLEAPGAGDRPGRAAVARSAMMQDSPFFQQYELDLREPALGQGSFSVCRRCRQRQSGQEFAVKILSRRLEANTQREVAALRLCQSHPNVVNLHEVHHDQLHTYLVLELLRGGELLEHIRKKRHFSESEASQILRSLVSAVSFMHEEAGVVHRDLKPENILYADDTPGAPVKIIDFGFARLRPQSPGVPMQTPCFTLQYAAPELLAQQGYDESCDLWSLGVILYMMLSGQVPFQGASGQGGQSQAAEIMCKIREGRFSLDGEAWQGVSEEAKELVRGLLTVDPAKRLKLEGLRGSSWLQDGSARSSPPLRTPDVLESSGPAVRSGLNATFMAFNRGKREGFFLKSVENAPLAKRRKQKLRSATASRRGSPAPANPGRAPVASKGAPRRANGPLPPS
Method in brief: as §1

JAK3 = molecular target: T7, JAK3 (Homo sapiens, UniProt P52333); details: read-out: percentage of control activity (POC), JAK3
T7 construct: purchased Eurofins Pharma Discovery Services (KinaseProfiler; Cerep BioPrint panel)
T7 sequence (P52333 1-1124): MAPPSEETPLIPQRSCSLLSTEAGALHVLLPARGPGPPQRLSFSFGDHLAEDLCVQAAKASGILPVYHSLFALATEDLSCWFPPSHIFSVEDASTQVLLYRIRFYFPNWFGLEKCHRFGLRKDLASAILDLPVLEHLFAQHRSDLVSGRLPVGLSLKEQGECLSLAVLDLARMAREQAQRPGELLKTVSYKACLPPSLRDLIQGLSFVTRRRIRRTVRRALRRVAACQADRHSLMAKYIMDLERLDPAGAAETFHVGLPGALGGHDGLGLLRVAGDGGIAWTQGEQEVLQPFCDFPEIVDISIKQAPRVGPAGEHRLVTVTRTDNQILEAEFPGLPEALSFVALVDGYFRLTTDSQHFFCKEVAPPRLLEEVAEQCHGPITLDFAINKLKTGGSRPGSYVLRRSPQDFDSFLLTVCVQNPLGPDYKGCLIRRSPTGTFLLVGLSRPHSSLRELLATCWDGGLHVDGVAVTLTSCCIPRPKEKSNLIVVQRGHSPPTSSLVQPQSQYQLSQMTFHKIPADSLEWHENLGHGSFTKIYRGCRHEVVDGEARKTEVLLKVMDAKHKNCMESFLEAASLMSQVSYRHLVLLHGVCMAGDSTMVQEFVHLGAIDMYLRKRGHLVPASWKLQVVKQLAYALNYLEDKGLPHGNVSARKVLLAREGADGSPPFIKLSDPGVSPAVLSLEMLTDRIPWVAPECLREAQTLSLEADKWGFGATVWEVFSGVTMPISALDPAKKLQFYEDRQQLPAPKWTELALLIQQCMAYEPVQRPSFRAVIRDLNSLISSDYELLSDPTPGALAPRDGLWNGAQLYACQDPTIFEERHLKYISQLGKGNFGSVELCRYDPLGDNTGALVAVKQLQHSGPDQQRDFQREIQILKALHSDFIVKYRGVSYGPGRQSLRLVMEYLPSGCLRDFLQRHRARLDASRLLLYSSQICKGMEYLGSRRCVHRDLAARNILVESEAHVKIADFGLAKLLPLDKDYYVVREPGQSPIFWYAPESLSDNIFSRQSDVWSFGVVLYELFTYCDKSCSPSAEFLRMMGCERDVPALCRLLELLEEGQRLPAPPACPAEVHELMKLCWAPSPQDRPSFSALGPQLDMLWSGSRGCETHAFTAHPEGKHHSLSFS
Method in brief: as §1

MINK = molecular target: T8, MINK (Homo sapiens, UniProt Q8N4C8); details: read-out: percentage of control activity (POC), MINK
T8 construct: purchased Eurofins Pharma Discovery Services (KinaseProfiler; Cerep BioPrint panel)
T8 sequence (Q8N4C8 whole entry): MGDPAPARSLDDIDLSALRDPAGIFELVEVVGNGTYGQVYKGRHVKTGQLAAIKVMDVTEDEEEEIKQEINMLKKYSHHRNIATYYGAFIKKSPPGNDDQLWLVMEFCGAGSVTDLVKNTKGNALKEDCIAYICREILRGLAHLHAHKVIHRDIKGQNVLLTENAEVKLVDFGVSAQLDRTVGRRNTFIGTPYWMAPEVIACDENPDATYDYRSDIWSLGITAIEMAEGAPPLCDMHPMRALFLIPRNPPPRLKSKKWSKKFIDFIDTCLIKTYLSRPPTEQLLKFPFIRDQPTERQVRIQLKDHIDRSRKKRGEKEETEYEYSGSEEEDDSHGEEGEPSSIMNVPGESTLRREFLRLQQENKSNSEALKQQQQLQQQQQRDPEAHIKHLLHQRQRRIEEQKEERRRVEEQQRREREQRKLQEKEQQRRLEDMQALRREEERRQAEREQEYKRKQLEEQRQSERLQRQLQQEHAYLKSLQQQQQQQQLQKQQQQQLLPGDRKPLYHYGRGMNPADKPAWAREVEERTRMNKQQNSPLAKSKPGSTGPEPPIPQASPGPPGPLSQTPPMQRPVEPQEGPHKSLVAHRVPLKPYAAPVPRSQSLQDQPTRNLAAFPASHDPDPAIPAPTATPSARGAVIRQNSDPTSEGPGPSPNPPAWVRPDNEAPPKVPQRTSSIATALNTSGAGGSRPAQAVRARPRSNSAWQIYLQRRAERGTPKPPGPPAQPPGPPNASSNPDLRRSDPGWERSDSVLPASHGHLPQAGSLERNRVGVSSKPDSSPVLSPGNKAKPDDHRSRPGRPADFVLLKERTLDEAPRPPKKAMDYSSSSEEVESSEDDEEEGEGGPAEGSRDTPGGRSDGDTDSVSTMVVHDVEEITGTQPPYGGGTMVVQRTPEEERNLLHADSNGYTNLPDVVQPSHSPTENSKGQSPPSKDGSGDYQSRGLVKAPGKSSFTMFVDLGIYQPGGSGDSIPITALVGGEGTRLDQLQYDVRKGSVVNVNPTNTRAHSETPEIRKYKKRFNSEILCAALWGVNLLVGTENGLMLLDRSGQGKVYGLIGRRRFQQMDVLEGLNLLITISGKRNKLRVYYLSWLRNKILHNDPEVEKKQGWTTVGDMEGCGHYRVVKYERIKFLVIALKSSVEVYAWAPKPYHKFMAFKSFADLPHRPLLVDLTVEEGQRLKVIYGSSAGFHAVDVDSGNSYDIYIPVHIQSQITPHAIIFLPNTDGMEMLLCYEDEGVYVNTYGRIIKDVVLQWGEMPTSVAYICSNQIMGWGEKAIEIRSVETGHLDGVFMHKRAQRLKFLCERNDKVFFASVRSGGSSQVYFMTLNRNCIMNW
Method in brief: as §1

EphA5 = molecular target: T9, EphA5 (Homo sapiens, UniProt P54756); details: read-out: percentage of control activity (POC), EphA5
T9 construct: purchased Eurofins Pharma Discovery Services (KinaseProfiler; Cerep BioPrint panel)
Method in brief: as §1

SAPK2b = molecular target: T10, SAPK2b (Homo sapiens, UniProt Q15759); details: for inhibition at 10 µM: read-out: inhibition of p38 β(SAPK2β); for remaining activity at 10 µM: read-out: percentage of control activity (POC), SAPK2b
T10 construct: purchased Eurofins Pharma Discovery Services (KinaseProfiler; Cerep BioPrint panel)
T10 sequence (Q15759 whole entry): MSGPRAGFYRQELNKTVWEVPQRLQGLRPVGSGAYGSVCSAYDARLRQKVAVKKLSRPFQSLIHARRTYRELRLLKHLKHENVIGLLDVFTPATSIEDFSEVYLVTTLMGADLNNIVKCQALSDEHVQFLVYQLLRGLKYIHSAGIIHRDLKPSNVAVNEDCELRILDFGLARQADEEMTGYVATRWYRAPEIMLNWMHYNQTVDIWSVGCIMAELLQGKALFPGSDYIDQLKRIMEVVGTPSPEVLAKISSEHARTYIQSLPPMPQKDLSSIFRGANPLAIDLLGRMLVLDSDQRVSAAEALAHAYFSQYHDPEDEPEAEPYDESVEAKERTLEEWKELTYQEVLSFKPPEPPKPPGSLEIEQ
Method in brief: as §1

Pim-1 = molecular target: T11, Pim-1 (Homo sapiens, UniProt P11309); details: read-out: percentage of control activity (POC), Pim-1
T11 construct: purchased Eurofins Pharma Discovery Services (KinaseProfiler; Cerep BioPrint panel)
Method in brief: as §1

PKCα = molecular target: T12, PKCα (Homo sapiens, UniProt P17252); details: read-out: percentage of control activity (POC), PKCα
T12 construct: purchased Eurofins Pharma Discovery Services (KinaseProfiler; Cerep BioPrint panel)
Method in brief: as §1

NEK2 = molecular target: T13, NEK2 (Homo sapiens, UniProt P51955); details: read-out: percentage of control activity (POC), NEK2
T13 construct: purchased Eurofins Pharma Discovery Services (KinaseProfiler; Cerep BioPrint panel)
T13 sequence (P51955 1-445): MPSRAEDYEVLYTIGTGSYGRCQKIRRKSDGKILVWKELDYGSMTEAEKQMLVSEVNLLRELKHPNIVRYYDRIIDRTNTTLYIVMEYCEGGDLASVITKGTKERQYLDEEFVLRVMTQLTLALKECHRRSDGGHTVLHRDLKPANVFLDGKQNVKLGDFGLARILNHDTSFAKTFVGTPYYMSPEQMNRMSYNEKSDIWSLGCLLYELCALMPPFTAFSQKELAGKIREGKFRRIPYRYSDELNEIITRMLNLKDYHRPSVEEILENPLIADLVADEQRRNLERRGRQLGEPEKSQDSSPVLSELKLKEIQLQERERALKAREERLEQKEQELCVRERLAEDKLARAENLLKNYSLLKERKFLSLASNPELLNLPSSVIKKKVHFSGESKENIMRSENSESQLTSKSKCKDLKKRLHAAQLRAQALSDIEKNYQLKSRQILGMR
Method in brief: as §1

c-RAF = molecular target: T14, c-RAF (Homo sapiens, UniProt P04049); details: read-out: percentage of control activity (POC), c-RAF
T14 construct: purchased Eurofins Pharma Discovery Services (KinaseProfiler; Cerep BioPrint panel)
T14 sequence (P04049 whole entry): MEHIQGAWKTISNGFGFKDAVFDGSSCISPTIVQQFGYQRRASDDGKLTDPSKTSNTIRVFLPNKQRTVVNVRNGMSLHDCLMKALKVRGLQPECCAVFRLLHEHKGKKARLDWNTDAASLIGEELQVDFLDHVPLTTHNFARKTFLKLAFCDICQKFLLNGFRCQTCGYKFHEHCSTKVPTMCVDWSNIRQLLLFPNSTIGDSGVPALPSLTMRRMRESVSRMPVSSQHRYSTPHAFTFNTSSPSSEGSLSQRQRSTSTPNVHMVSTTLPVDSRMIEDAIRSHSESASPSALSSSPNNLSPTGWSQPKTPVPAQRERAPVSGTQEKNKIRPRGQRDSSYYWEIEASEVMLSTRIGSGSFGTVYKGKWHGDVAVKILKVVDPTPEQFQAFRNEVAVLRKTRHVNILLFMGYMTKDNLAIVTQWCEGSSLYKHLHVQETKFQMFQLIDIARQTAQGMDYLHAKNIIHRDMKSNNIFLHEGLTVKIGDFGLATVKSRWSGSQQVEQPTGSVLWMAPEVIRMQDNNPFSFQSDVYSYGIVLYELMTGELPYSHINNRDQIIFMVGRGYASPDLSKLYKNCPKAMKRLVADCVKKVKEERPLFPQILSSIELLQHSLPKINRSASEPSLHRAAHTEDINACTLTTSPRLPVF
Method in brief: as §1

Lck = molecular target: T15, Lck (Homo sapiens, UniProt P06239); details: for remaining activity at 10 µM: read-out: percentage of control activity (POC), Lck
T15 construct: Eurofins Pharma Discovery Services (contract assay service)
Method in brief: as §1

| Compound | remaining activity at 10 µM (CDK1/cyclinB) [%] | remaining activity at 10 µM (Rsk2) [%] | remaining activity at 10 µM (PTK5) [%] | remaining activity at 10 µM (CDK9/cyclin T1) [%] | inhibition at 10 µM (SAPK2a) [%] | remaining activity at 10 µM (SAPK2a) [%] | remaining activity at 10 µM (MSK2) [%] | remaining activity at 10 µM (JAK3) [%] | remaining activity at 10 µM (MINK) [%] | remaining activity at 10 µM (EphA5) [%] | inhibition at 10 µM (SAPK2b) [%] | remaining activity at 10 µM (SAPK2b) [%] | remaining activity at 10 µM (Pim-1) [%] | remaining activity at 10 µM (PKCα) [%] | remaining activity at 10 µM (NEK2) [%] | remaining activity at 10 µM (c-RAF) [%] | remaining activity at 10 µM (Lck; 10 μM) [%] | inhibition at 10 µM (PTK5) [%] | inhibition at 10 µM (Lck; 10 μM) [%] | IC50 (Lck; biochemical dose response, duplicate, read-out: Inhibition of indicated activity (IC50, μM): Lck) [µM] |
| --- | --- | --- | --- | --- | --- | --- | --- | --- | --- | --- | --- | --- | --- | --- | --- | --- | --- | --- | --- | --- |
| Cn1cc(-c2cccc(-c3nc(C(=O)NC4C5CC6CC4CC(O)(C6)C5)c(N)nc3N)c2)cn1 (stereo not drawn) [compound 4] | 64 | 88 | 54 | 95 | – | 91 | 96 | 89 | 94 | 93 | – | 99 | 68 | 85 | 85 | 52 | 44 | – | 56 | 3.33 |
| CS(=O)(=O)N1CCN(c2ccc(Nc3ncc(C(N)=O)c(NC4CC4)n3)cc2)CC1 [compound 5] | 71 | -2 | 31 | 56 | – | 89 | 21 | -2 | 14 | 56 | – | 82 | 81 | 38 | 4 | 10 | 4 | – | – | – |

Continued, in another order:

| remaining activity at 10 µM (CDK1/cyclinB) [%] | remaining activity at 10 µM (Rsk2) [%] | remaining activity at 10 µM (PTK5) [%] | remaining activity at 10 µM (CDK9/cyclin T1) [%] | inhibition at 10 µM (SAPK2a) [%] | remaining activity at 10 µM (SAPK2a) [%] | remaining activity at 10 µM (MSK2) [%] | remaining activity at 10 µM (JAK3) [%] | remaining activity at 10 µM (MINK) [%] | remaining activity at 10 µM (EphA5) [%] | inhibition at 10 µM (SAPK2b) [%] | remaining activity at 10 µM (SAPK2b) [%] | remaining activity at 10 µM (Pim-1) [%] | remaining activity at 10 µM (PKCα) [%] | remaining activity at 10 µM (NEK2) [%] | remaining activity at 10 µM (c-RAF) [%] | remaining activity at 10 µM (Lck; 10 μM) [%] | inhibition at 10 µM (PTK5) [%] | Compound | inhibition at 10 µM (Lck; 10 μM) [%] | IC50 (Lck; biochemical dose response, duplicate, read-out: Inhibition of indicated activity (IC50, μM): Lck) [µM] |
| --- | --- | --- | --- | --- | --- | --- | --- | --- | --- | --- | --- | --- | --- | --- | --- | --- | --- | --- | --- | --- |
| 100 | 101 | 97 | 96 | ~100 | -1 | 90 | 102 | 104 | 95 | ~100 | -5 | 86 | 106 | 100 | 112 | 98 | – | CC(C)(C)N1CCC(c2cc(-c3ccc(F)cc3Cl)c3cc[n+]([O-])c(-c4c(Cl)cccc4Cl)c3n2)CC1 [compound 2] | – | – |
| 96 | 103 | 56 | 85 | ~100 | -2 | 91 | 100 | 93 | 99 | ~100 | -6 | 79 | 95 | 99 | 54 | 102 | – | Cc1ccc(C(=O)NCC2CC2)cc1-c1ccc2c(c1)NC(=O)C21CCCC1 [compound 3] | – | – |
| 101 | 112 | 4 | 97 | ~100 | -1 | 109 | 99 | 110 | 65 | ~100 | -4 | 96 | 102 | 95 | 61 | 81 | 96 | COc1c(NC(=O)c2ccc(C)c(-c3nnc4c(NCC(C)(C)C)nccn34)c2)cc(C(C)(C)C)cc1NS(C)(=O)=O [compound 7, reference compound] | – | – |
